Data from PubChem BioAssay (NCI).
Where “and” joins values, the source holds several entries; their conditions need not be identical. Equal values may be shown once.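 Tested at 5 concentrations; 48 h exposure; 96-well plates; endpoints linearly interpolated, else capped at highest concentration. GI50 = concentration required for 50% inhibition of growth. TGI is the concentration that stops growth completely.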

How the values were obtained:
Assay in all cases: inhibition of tumour cell growth, NCI panel, 48 h
SK-OV-3 ovarian = system: SK-OV-3 ovarian
SR leukemia = system: SR leukemia
SK-MEL-2 melanoma = system: SK-MEL-2 melanoma
CAKI-1 renal = system: CAKI-1 renal
SN12C renal = system: SN12C renal
SNB-19 CNS = system: SNB-19 CNS
OVCAR-8 ovarian = system: OVCAR-8 ovarian
HL-60(TB) leukemia = system: HL-60(TB) leukemia

| SMILES | GI50 (SK-OV-3 ovarian) | TGI (SK-OV-3 ovarian) | GI50 (SR leukemia) | TGI (SR leukemia) | GI50 (SK-MEL-2 melanoma) | TGI (SK-MEL-2 melanoma) | GI50 (CAKI-1 renal) | TGI (CAKI-1 renal) | GI50 (SN12C renal) | TGI (SN12C renal) | GI50 (SNB-19 CNS) | TGI (SNB-19 CNS) | GI50 (OVCAR-8 ovarian) | TGI (OVCAR-8 ovarian) | GI50 (HL-60(TB) leukemia) | TGI (HL-60(TB) leukemia) |
| --- | --- | --- | --- | --- | --- | --- | --- | --- | --- | --- | --- | --- | --- | --- | --- | --- |
| O=C(COc1cccc(/C=C2\CSc3ccccc3C2=O)c1)Nc1nccs1 | 14.6 µM | 27.7 µM | 0.557 µM | 2.44 µM | 1.22 µM | 3.1 µM | 1.72 µM | 6.33 µM | 1.76 µM | 4.46 µM | 6.48 µM | 19.6 µM | 3.08 µM | 10.4 µM | – | – |
| COC(=O)c1ccc(NC(=O)Oc2ccc(N(CCCl)CCCl)cc2)cc1 | 4.41 µM | 29.5 µM | 0.394 µM | > 100 µM | 20 µM | 52.5 µM | 0.434 µM | 7.36 µM | 2.97 µM | 94.1 µM | 5.17 µM | > 100 µM | 4.34 µM | 84.6 µM | 0.867 µM | 11.6 µM |
| CN(CCCNC(=O)CCOCCOCCOCCNC(=O)Cc1ccc2ccc3cccc4ccc1c2c34)CCCNc1cc(-c2ccc3ccccc3c2)nc2ccccc12 | 0.634 µM | 1.2 µM | – | – | 4.84 µM | 13.2 µM | 1.06 µM | 3.34 µM | 3.59 µM | 8.44 µM | 0.51 µM | 0.991 µM | 0.341 µM | 0.735 µM | – | – |
| COc1nnc2ccc(N3CCC(c4ccc(OCCN5CCN(C)C(=O)[C@H]5C)cc4)CC3)nn12 | 0.0774 µM | > 42.1 µM | 0.0198 µM | > 100 µM | 0.678 µM | > 100 µM | 0.0237 µM | > 100 µM | 0.606 µM | > 100 µM | 0.224 µM | > 100 µM | 0.544 µM | > 100 µM | 0.0309 µM | > 100 µM |
| CN(CC(=O)N(Cc1ccc(C2CCCCC2)cc1)c1ccc(C(=O)O)cc1)S(=O)(=O)c1c(F)c(F)c(F)c(F)c1F | 1.93 µM | 3.8 µM | 2.64 µM | 7.89 µM | 2.06 µM | 3.68 µM | 1.93 µM | 4.31 µM | 2.22 µM | 4.88 µM | – | – | 2.5 µM | 5.79 µM | 2.08 µM | 4.48 µM |
| CC[n+]1c(/C=C/C=C2\N(C)c3ccccc3C2(C)C)sc2ccccc21 | 5.71 µM | 13.9 µM | 3.32 µM | 9.32 µM | 5.23 µM | 11 µM | – | – | 4.16 µM | 8 µM | 4.1 µM | 7.8 µM | 4.31 µM | 8.54 µM | 5.16 µM | 12.1 µM |
| c1cc2c(cn1)Nc1ccncc1S2 | 15.2 µM | 80.6 µM | – | – | 35.2 µM | > 100 µM | > 100 µM | > 100 µM | 69.4 µM | > 100 µM | 39 µM | > 100 µM | 35.7 µM | > 100 µM | 20.5 µM | 68.5 µM |
| Cc1cc([N+](=O)[O-])c2ccccc2[n+]1[O-] | 1.94 µM and 3.33 µM | 6.07 µM and 11.6 µM | 0.0279 µM and 0.0264 µM | – | 0.209 µM and 0.212 µM | 0.471 µM and 0.404 µM | 0.541 µM and 0.627 µM | 3.92 µM and 2.35 µM | 0.278 µM and 0.27 µM | 1.8 µM and 3.09 µM | 0.448 µM and 0.848 µM | 4.06 µM and 8.29 µM | 0.683 µM and 0.688 µM | 3.88 µM and 4.86 µM | 2.11 µM and 1.65 µM | 6.48 µM and 5.51 µM |
| COc1cccc(/C=C2\COc3ccc(-c4ccccc4)cc3C2=O)c1 | 5.25 µM | 35.8 µM | 1.98 µM | > 100 µM | 2.38 µM | 5.27 µM | 2.55 µM | 6.42 µM | 2.33 µM | 7.49 µM | 2.7 µM | 7.21 µM | 2.21 µM | 6.14 µM | 2.52 µM | > 100 µM |
| NC(=S)c1c(N)n(C2OC(CO)C(O)C2O)c2ncnc(N)c12 (stereo not given) | 0.388 µM | > 100 µM | 0.0636 µM | 0.403 µM | 0.297 µM | 1.07 µM | 0.515 µM | 5.42 µM | 0.208 µM | > 100 µM | 0.962 µM | > 100 µM | 0.232 µM | 0.863 µM | 0.135 µM | 0.407 µM |
| CCOC(=O)c1cnc2c(C)cccc2c1Nc1ccc(C(C)=O)cc1 | 75.8 µM | > 100 µM | 60.8 µM | > 100 µM | – | – | 79 µM | > 100 µM | 24.9 µM | > 100 µM | 40.2 µM | > 100 µM | 33.8 µM | > 100 µM | > 100 µM | > 100 µM |
| CN1C(=O)C2(c3ccccc31)N(c1ccc(Cl)cc1)C(=O)C2(c1ccccc1)c1ccccc1 (stereo not given) | > 100 µM | > 100 µM | 41.7 µM | > 100 µM | 35.6 µM | > 100 µM | > 100 µM | > 100 µM | 94.3 µM | > 100 µM | 22.4 µM | > 100 µM | > 100 µM | > 100 µM | 3.42 µM | 16.5 µM |
| O=C1NC(=NCCCc2ccccc2)S/C1=C\c1ccc2ncccc2c1 | 5.33 µM | 12.2 µM | 3.73 µM | 16.5 µM | 4.96 µM | 9.67 µM | 5.09 µM | > 18.2 µM | 6.13 µM | 20.9 µM | 3.69 µM | > 22.4 µM | 5.94 µM | 16.8 µM | 5.49 µM | 16 µM |
| CCCCCCCCCCCC[n+]1ccc2ccccc2c1 | 1.43 µM | 3.1 µM | 0.75 µM | 2.57 µM | 1.5 µM | 3.88 µM | 1.65 µM | 5.06 µM | 1.17 µM | 2.65 µM | 0.995 µM | 2.22 µM | 0.654 µM | 2.34 µM | 0.267 µM | 0.954 µM |
| C=CC(=O)N1CC2(CC(n3nc(-c4ccc5c(cnn5C)c4)c(-c4c(Cl)c(C)cc5[nH]ncc45)c3C)C2)C1 | 5.17 µM | 18.2 µM | 1.61 µM | 6.12 µM | 1.91 µM | 3.63 µM | 3.95 µM | 14.3 µM | 3.08 µM | 12.1 µM | 3.43 µM | 13.5 µM | 2.13 µM | 4.84 µM | 2.58 µM | 9.27 µM |
